From patent US20230405014A1, “USE OF AN IRAK4 MODULATOR FOR GENE THERAPY” (Genzyme Corporation, priority 2022, published 2023)

How the values were obtained:
[1] = tested on: transgene LacZ specific CD8 T cells; experiment: In vivo mouse model of AAV-induced immune response, LacZ tetramer staining; set-up: species or system C57BL/6J mice; conditions: KT-474 in chow 100 mg/kg from 15 days prior to intramuscular AAV
Experimental: In vivo mice experiments: C57BL/6J mice were purchased from Jackson Laboratories. 6-8-week male mice were divided into 3 groups—PBS group, AAV group and AAV+KT474 group all groups with 6 mice each. […] PBS group mice were injected intramuscularly with 100 ul PBS, AAV group was injected intramuscularly with 1e11 vg per quadricep muscle of both legs, 100 ul volume. AAV capsid used in the study had LacZ transgene. All animal experiments were conducted in accordance with the Institutional Animal Care and Use Committees at Sanofi, Framingham. Submandibular bleeds were performed weekly, and necropsy was performed three weeks post AAV injection.
The PBS and AAV only groups were fed regular chow and were bled on day 14 and necorpsied on day 21.
PBMC isolation 120 ul blood was collected in K2EDTA coated tubes. The blood was mixed with DBPS at 1:1 ration and pipetted into a separate tube containing Ficoll (GE17-5442-02) to ensure no mixing of the blood and Ficoll phases. The mixture was centrifuged at 2000 RPM for 25 minutes at room temperature (9 acceleration and no braking). […] PBMCs were washed three times with phosphate buffered saline (PBS) containing 1% fetal bovine serum (FBS) or fetal calf serum (FCS) and counted. The PBMC cells thus obtained were stained with different antibodies to quantify percentage of different immune cell subsets in peripheral blood. […]

[2] = tested on: primary human monocytic dendritic cells; experiment: Cell viability of dendritic cells (Live/Dead staining, flow cytometry); format: cell-based; conditions: AAV at MOI 1e5 and KT-474 co-treated, 24 hours, at doses tested, three donors (FIG. 3)
[3] = tested on: human monocytic dendritic cells; experiment: Cytokine release from human monocytic dendritic cells co-treated with AAV and KT-474 (Luminex); format: cell-based; conditions: co-treatment with AAV at MOI 1e5, 24 hours, all KT-474 doses
Experimental: Preparation of Peripheral Blood Mononuclear Cells. Blood from leukopaks (Stem cell technologies) from different donors was decanted into 50 mL tubes and Dulbecco's phosphate buffered saline (DPBS) was added at a 1:1 ratio. The blood plus DBPS mix was gently pipetted into a separate 50 mL tube containing 15 mL Ficoll (GE17-5442-02) to ensure no mixing of the blood and Ficoll phases. The mixture was centrifuged at 2000 RPM for 25 minutes at room temperature (9 acceleration and no braking). The buffy coat containing the peripheral blood mononuclear cells (PBMCs) was collected, transferred to a new tube, and centrifuged for five minutes at 400 RCF. PBMCs were washed three times with phosphate buffered saline (PBS) containing 1% fetal bovine serum (FBS) or fetal calf serum (FCS) and counted.
Isolation of Monocytes. CD14+ monocytes were isolated from the PBMCs using CD14 MicroBeads following the manufacturer's protocol (Miltenyi Biotech, Germany, order no. 130-050-201, protocol available online world wide web miltenyibiotec.com/upload/assets/IM0001260.PDF). Briefly, PBMCs were incubated with […] CD14 MicroBeads per 10^7 total cells for 15 minutes at 2-8° C. PBMCs were applied onto a magnetic column (Miltenyi; world wide web miltenyibiotec.com/US-en/products/ls-columns.html #130-042-401) and unlabeled cells were allowed to pass through. After washing the column three times, the column was removed from the magnetic separator, (Miltneyi; world wide web miltenyibiotec.com/US-en/products/quadromacs-separator-and-starting-kits.html #130-091-051) placed on a collection tube, and magnetically labeled CD14+ monocytes were flushed out by pushing a plunger into the column.
Differentiation of Monocytes. […]
rAAV Production and Titration. rAAV vectors were produced using a standard triple transfection method (Sena-Esteves and Gao, Cold Spring Harb Protoc; doi:10.1101/pdb.top095513, 2020). All serotypes evaluated encode the same GFP transgene. Viruses were purified by cesium chloride ultracentrifugation and titrated using both silver staining and quantitative polymerase chain reaction (qPCR). […]

**Q.** How did the “LacZ tetramer positive (transgene LacZ specific) CD8 T cells in PBMCs” value ([1]; peripheral blood, 14 days post AAV injection (FIG. 6A)) turn out when `Cn1c(=O)n(C2CCC(=O)NC2=O)c2cccc(C#CCOC3CCN(C[C@H]4CC[C@H](n5cc(NC(=O)c6cnn7ccc(N8C[C@H]9C[C@@H]8CO9)nc67)c(C(F)F)n5)CC4)CC3)c21` (stereo partly drawn) [KT-474] was run?
**A.** The value was “reduced significantly”.

**Q.** And the “LacZ tetramer positive (transgene LacZ specific) CD8 T cells in spleen” value ([1]; splenocytes, 21 days post AAV injection (FIG. 6B))?
**A.** The value was “reduced significantly”.

**Q.** And the “cellular toxicity (cell viability)” value [2]?
**A.** The value was “no cellular toxicity”.

**Q.** And the “AAV-induced secretion of IL1b” value ([3]; three donors (FIG. 2A))?
**A.** Its value is “blocked”.

**Q.** What about the “AAV-induced secretion of IL6” value ([3]; three donors (FIG. 2B)) of the same compound?
**A.** The value was “blocked”.

**Q.** And the “AAV-induced secretion of TNFa” value ([3]; three donors (FIG. 2C))?
**A.** The value was “blocked”.
